Data as given in publication PMC7997269, “Oral Proteasomal Inhibitors Ixazomib, Oprozomib, and Delanzomib Upregulate the Function of Organic Anion Transporter 3 (OAT3): Implications in OAT3-Mediated Drug-Drug Interactions” (Pharmaceutics, 2021).

T1: OAT3 (hOAT3) (Homo sapiens, UniProt Q8TCC7)
T1 construct: gene SLC22A8; full-length human OAT3 with fused Myc tag, stably expressed in COS-7 cells; ~80 kDa on blot
T1 sequence (Q8TCC7 1-542): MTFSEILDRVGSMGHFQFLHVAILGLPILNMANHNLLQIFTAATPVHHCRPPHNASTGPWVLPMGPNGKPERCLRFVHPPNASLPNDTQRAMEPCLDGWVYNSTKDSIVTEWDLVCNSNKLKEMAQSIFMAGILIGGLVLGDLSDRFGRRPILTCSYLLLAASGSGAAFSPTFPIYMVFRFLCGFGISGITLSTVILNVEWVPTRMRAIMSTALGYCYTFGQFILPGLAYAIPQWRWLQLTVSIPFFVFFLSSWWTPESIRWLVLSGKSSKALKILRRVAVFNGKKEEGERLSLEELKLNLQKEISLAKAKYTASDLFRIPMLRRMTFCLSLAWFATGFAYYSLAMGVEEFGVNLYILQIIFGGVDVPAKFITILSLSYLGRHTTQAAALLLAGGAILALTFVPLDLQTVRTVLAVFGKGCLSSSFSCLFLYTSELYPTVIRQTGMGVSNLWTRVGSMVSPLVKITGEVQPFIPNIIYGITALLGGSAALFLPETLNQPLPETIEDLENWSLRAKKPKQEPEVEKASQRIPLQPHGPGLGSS


Columns and labels:
[1] = system: T2, 20S proteasome; assay: […] activity with SUC-LLVY-AMC in lysate after […] h treatment of intact COS-7 cells; assay type: cell-based; conditions: 37 °C; reversible; chymotrypsin-like activity
T2 construct: gene PSMB5; endogenous 20S proteasome of hOAT3-expressing COS-7 cells; activity read in lysate of drug-treated cells with SUC-LLVY-AMC (chymotrypsin-like, beta5); complex of 28 subunits

[2] = molecular target: T1, OAT3 (hOAT3); assay: cis-inhibition of [3H]estrone sulfate uptake in hOAT3-expressing COS-7 cells, […] min; assay type: cell-based
[3] = substrate: C[C@]12CC[C@@H]3c4ccc(OS(=O)(=O)O)cc4CC[C@H]3[C@@H]1CCC2=O; assay: cells, lysate or membranes; assay type: cell-based, Homo sapiens; conditions: untreated cells; PBS/Ca2+/Mg2+; 0.3-10 µM; labelled compound (3H); parental-cell uptake subtracted

| Molecule | % inhibition at 30 nM [1] | other results |
| --- | --- | --- |
| CC(C)C[C@H](NC(=O)[C@@H](NC(=O)c1cccc(-c2ccccc2)n1)[C@@H](C)O)B(O)O [delanzomib] | 61 (95% CI: 57 to 65) |  |
| CC(C)C[C@H](NC(=O)CNC(=O)c1cc(Cl)ccc1Cl)B(O)O [ixazomib] | 50 (95% CI: 46 to 54) |  |
| CCCN(CCC)S(=O)(=O)c1ccc(C(=O)O)cc1 [probenecid] |  | inhibition at 5 µM [2]: 40% |
| OAT3 (hOAT3) (Homo sapiens) (protein, full-length human OAT3 with fused Myc tag, stably expressed in COS-7 cells; ~80 kDa on blot) MTFSEILDRVGSMGHFQFLHVAILGLPILNMANHNLLQIFTAATPVHHCRPPHNASTGPWVLPMGPNGKPERCLRFVHPPNASLPNDTQRAMEPCLDGWVYNSTKDSIVTEWDLVCNSNKLKEMAQSIFMAGILIGGLVLGDLSDRFGRRPILTCSYLLLAASGSGAAFSPTFPIYMVFRFLCGFGISGITLSTVILNVEWVPTRMRAIMSTALGYCYTFGQFILPGLAYAIPQWRWLQLTVSIPFFVFFLSSWWTPESIRWLVLSGKSSKALKILRRVAVFNGKKEEGERLSLEELKLNLQKEISLAKAKYTASDLFRIPMLRRMTFCLSLAWFATGFAYYSLAMGVEEFGVNLYILQIIFGGVDVPAKFITILSLSYLGRHTTQAAALLLAGGAILALTFVPLDLQTVRTVLAVFGKGCLSSSFSCLFLYTSELYPTVIRQTGMGVSNLWTRVGSMVSPLVKITGEVQPFIPNIIYGITALLGGSAALFLPETLNQPLPETIEDLENWSLRAKKPKQEPEVEKASQRIPLQPHGPGLGSS |  | Km [3]: 4.2 ± 0.3 µM |
